Patent publication US20240307349A1, “METHODS FOR THE PREPARATION AND DOSE REGIMENS FOR USE OF SSTR4 AGONISTS AND SALTS THEREOF” (priority 2023, published 2024)

How the values were obtained:
Format in all cases: in vivo, human
[1] = system: participants with OA in the knee; assay: H0P-MC-OA03 Phase 2 placebo-controlled trial, osteoarthritis pain
Description: The purpose of this study was to test whether Example 5 is efficacious in relieving osteoarthritis (OA) pain in the knee. Data was also collected to assess the safety and tolerability of Example 5 in this study population and previously discussed. Pharmacokinetic properties and pharmacodynamic effects were also be explored. The totality of data from this proof-of-concept study assessed the benefits and risks associated with Example 5.
OA03 was an 8-week, Phase 2, randomized, double-blind, placebo-controlled study that compared Example 5 versus placebo in participants with OA in the knee.
The primary clinical question of interest was “What is the treatment difference between Example 5 and placebo assessed using mean change from baseline to endpoint (Week 8) for average pain intensity (API) as measured using the numeric rating scale (NRS) in participants with OA of the knee regardless of initiation of rescue medication or other allowed concomitant medication and assuming that they would have continued initially randomized treatment condition?”
The key secondary clinical question of interest was: “What is the treatment difference between Example 5 and placebo assessed using mean change from baseline to endpoint (Week 8) for pain as measured by the WOMAC® (Western Ontario and McMaster Universities Arthritis Index) pain subscale in participants with OA of the knee regardless of initiation of rescue medication or other allowed concomitant medication and assuming that they would have continued initially randomized treatment condition?”
Participants were randomly assigned in the ratio of 2:1 to Example 5 or placebo. Based on tolerability, participants could take up to a maximum of 3 capsules orally (each capsule was 200 mg), twice daily (BID), approximately every 12 hours, for a total dose of 600 mg.
The protocol was amended to include a titration to the target dose of 600 mg. Investigators could reduce the dose from 600 to 400 mg after discussion with the participant due to tolerability as long as the change occurred before the end of Visit 4, that is, study Week 2. The medical monitor was contacted as needed.

[2] = system: patients; assay: Pooled safety analysis of Phase 2 studies OA03, BP03 and NP03; details: 200 mg to 600 mg
Method: For each of these studies, further analyses were performed to identify TEAEs related to CV, thyroid, and abnormal renal function. CV AEs were identified using prespecified standardized MedDRA queries/preferred terms (SMQs/PTs) for cardiac arrhythmia, hypotension, major adverse cardiovascular event, and congestive heart failure. Thyroid-related AEs were identified with the ‘Hypothyroidism’ (SMQ), and AEs associated with abnormal renal function were identified with the high-level terms (HLTs) renal failure and impairment and select PTs.
Safety data from the 3 pooled intervention-specific appendix (ISAs), OA03, BP03, and NP03 were analyzed for the following safety topics of interest.
Thus, after the treatment of a total 282 patients that were administered from 200 mg to 600 mg of Example 5 in the 3 phase 2 studies, an adequate safety profile was established. While the safety of the 3 phase 2 studies were discussed together, the efficacy results for each study will be discussed herein.

[3] = system: participants with DPNP; assay: H0P-MC-NP03 Phase 2 placebo-controlled trial, diabetic peripheral neuropathic pain
Description: The purpose of this study was to test whether Example 5 is efficacious in relieving diabetic peripheral neuropathic pain (DPNP). Data was collected to assess the safety and tolerability of Example 5 in this study population and previously discussed above. Pharmacokinetic properties and pharmacodynamic effects were also explored. The totality of data from this proof-of-concept study will assess the benefits and risks associated with Example 5.
NP03 was an 8-week, Phase 2, randomized, double-blind, placebo-controlled study that compared Example 5 versus placebo in participants with DPNP.
Participants received either Example 5 or placebo. Based on tolerability, participants received up to a maximum of 3 capsules orally (each capsule was 200 mg), twice daily, approximately every 12 hours, for a total dose of 600 mg.
The primary clinical question of interest was, “What is the treatment difference between Example 5 and placebo assessed using mean change from baseline to endpoint (Week 8) for average pain intensity (API) as measured by the Numeric Rating Scale (NRS) in participants with diabetic peripheral neuropathic pain (DPNP) regardless of initiation of rescue medication or other allowed concomitant medication and assuming that they would have continued initially randomized treatment condition?”
Participants were randomly assigned 2:1 to Example 5 or placebo. Based on tolerability, participants could take up to a maximum of 3 capsules orally (each capsule was 200 mg), twice daily (BID), approximately every 12 hours, for a total dose of 600 mg BID.
The protocol allowed changes to the dose for individual participants, but the maximum daily dose should not exceed 600 mg BID. The starting dose level was 200 mg BID. Decisions to change the dose level were made by the investigator in discussion with the participants based on the adverse events (AEs) reported for tolerability. The medical monitor was contacted as needed. All changes in dose level had to occur before the end of Visit 4 (Study Week 2).
NP03 was an 8-week, multicenter, randomized, DB, placebo-controlled, Phase 2, proof-of-concept study to evaluate Example 5 for the treatment of DPNP. Participants were randomly assigned 2:1 to Example 5 or placebo. A total of 68 participants enrolled into the NP03 ISA, with 45 participants randomly assigned to Example 5, and 23 participants assigned to placebo. The safety population consisted of the 68 participants who received at least 1 dose of study intervention and included all participants in the enrolled population. Using a titration scheme, Example 5 was administered orally as a maximum of 3 capsule (200 mg per capsule) for a total dose of 600 mg approximately every 12 hours, with or without food. Fifty percent of participants completed the BD treatment phase.

In the case of `Cc1cccnc1OCC(C)(C)NC(=O)[C@H]1[C@@H]2CNC[C@@H]21.O=C(O)C(O)C(O)C(=O)O` [Example 5, (1R,5S,6r)-N-(2-Methyl-1-((3-methylpyridin-2-yl)oxy)propan-2-yl)-3-azabicyclo[3.1.0]hexane-6-carboxamide L-tartrate sesquihydrate], the “Mean change from baseline assessment to endpoint for API as measured using the NRS” value ([1]; 8 weeks after initial treatment administration, up to 600 mg Q12H, n = 135) is reported as −1.7, the “key secondary objective: efficacy versus placebo, WOMAC pain subscale” value ([1]; Week 8) is reported as “did not meet the prespecified threshold” and the “primary objective: efficacy versus placebo, API by weekly average of NRS” value ([1]; Week 8, osteoarthritic pain) is reported as “did not meet the prespecified threshold”. For the same compound, the “mean change in pain intensity from baseline assessment to Week 8 using the WOMAC pain subscale” value ([1]; Week 8, up to 600 mg Q12H, n = 135) was −2.6, the “differences in thyroid-related TEAEs or thyroid analytes versus placebo” value [2] was “no clinically meaningful differences” and the “Mean Change of Average Pain Intensity, Weekly Average of NRS” value (from here on “Mean Change of Average Pain Intensity”) ([3]; 400 mg BID, week 1, n = 8) was −0.74. The “Observed Mean of Average Pain Intensity, Weekly Average of NRS” value (“Observed Mean of Average Pain Intensity” below) ([3]; 400 mg BID, week 1, n = 8) was 5.76, the “Mean Change of Average Pain Intensity” value ([3]; 400 mg BID, week 2, n = 9) was −1.62 and the “Observed Mean of Average Pain Intensity” value ([3]; 400 mg BID, week 2, n = 9) was 4.90. The “Mean Change of Average Pain Intensity” value ([3]; 400 mg BID, week 3, n = 9) was −2.12, the “Observed Mean of Average Pain Intensity” value ([3]; 400 mg BID, week 3, n = 9) was 4.41 and the “Mean Change of Average Pain Intensity” value ([3]; 400 mg BID, week 4, n = 6) was −2.05. For the same compound, the “Observed Mean of Average Pain Intensity” value ([3]; 400 mg BID, week 4, n = 6) was 5.46, the “Mean Change of Average Pain Intensity” value ([3]; 400 mg BID, week 5, n = 4) was −3.37 and the “Observed Mean of Average Pain Intensity” value ([3]; 400 mg BID, week 5, n = 4) was 4.66. The “Mean Change of Average Pain Intensity” value ([3]; 400 mg BID, week 6, n = 5) was −2.72, the “Observed Mean of Average Pain Intensity” value ([3]; 400 mg BID, week 6, n = 5) was 4.15 and the “Mean Change of Average Pain Intensity” value ([3]; 400 mg BID, week 7, n = 4) was −3.34. For the same compound, the “Observed Mean of Average Pain Intensity” value ([3]; 400 mg BID, week 7, n = 4) was 2.96, the “Mean Change of Average Pain Intensity” value ([3]; 400 mg BID, week 8, n = 4) was −3.39 and the “Observed Mean of Average Pain Intensity” value ([3]; 400 mg BID, week 8, n = 4) was 4.17. For the same compound, the “Mean Change of Average Pain Intensity” value ([3]; 600 mg BID, week 1, n = 30) was −0.72, the “Observed Mean of Average Pain Intensity” value ([3]; 600 mg BID, week 1, n = 30) was 5.77 and the “Mean Change of Average Pain Intensity” value ([3]; 600 mg BID, week 2, n = 29) was −1.59. The “Observed Mean of Average Pain Intensity” value ([3]; 600 mg BID, week 2, n = 29) was 4.91, the “Mean Change of Average Pain Intensity” value ([3]; 600 mg BID, week 3, n = 23) was −2.09 and the “Observed Mean of Average Pain Intensity” value ([3]; 600 mg BID, week 3, n = 23) was 4.82. For the same compound, the “Mean Change of Average Pain Intensity” value ([3]; 600 mg BID, week 4, n = 24) was −2.18, the “Observed Mean of Average Pain Intensity” value ([3]; 600 mg BID, week 4, n = 24) was 4.64 and the “Mean Change of Average Pain Intensity” value ([3]; 600 mg BID, week 5, n = 21) was −2.43. The “Observed Mean of Average Pain Intensity” value ([3]; 600 mg BID, week 5, n = 21) was 4.18, the “Mean Change of Average Pain Intensity” value ([3]; 600 mg BID, week 6, n = 19) was −2.37 and the “Observed Mean of Average Pain Intensity” value ([3]; 600 mg BID, week 6, n = 19) was 4.26. For the same compound, the “Mean Change of Average Pain Intensity” value ([3]; 600 mg BID, week 7, n = 17) was −2.64, the “Observed Mean of Average Pain Intensity” value ([3]; 600 mg BID, week 7, n = 17) was 3.78 and the “Mean Change of Average Pain Intensity” value ([3]; 600 mg BID, week 8, n = 16) was −2.74. The “Observed Mean of Average Pain Intensity” value ([3]; 600 mg BID, week 8, n = 16) was 3.79, the “Mean change from baseline assessment to endpoint for API as measured using the NRS” value ([3]; 8 weeks after initial treatment administration, up to 600 mg Q12H, n = 45) was −2.75 and the “most secondary endpoints compared with placebo” value ([3]; DPNP) was “greater numerical improvements”. For the same compound, the “decrease in API measured by NRS, 400 mg dosing regimen compared with the 600 mg dosing regimen” value ([3]; Week 8) was “greater decrease in API measured by NRS in the 400 mg dosing regimen”, the “primary objective: posterior probability for change from baseline in API versus placebo” value ([3]; Week 8, DPNP) was “met the prespecified threshold” and the “Mean change from baseline assessment to endpoint for worst pain intensity as measured by weekly NRS” value ([3]; Week 8, n = 45) was −3.06. For the same compound, the “Mean change from baseline assessment to endpoint on the VAS for pain” value ([3]; Week 8, n = 45) was −30.20, the “Mean change from baseline to endpoint for the BPI-SFM” value ([3]; Week 8, n = 45) was −2.31 and the “Overall improvement to endpoint as measured by PGIC” value ([3]; Week 8, n = 45) was 2.3.
